For data set [1], the system named is DTH reaction in Balb/c mice. Nature of the data set: Delayed type hypersensitivity (DTH) reaction, Tetanus Toxoid footpad swelling. It is filed as in vivo. As to conditions: female Balb/c mice, sc. once daily day 1-11, Tetanus Toxoid immunization day 2, challenge day 9, footpad swelling. The procedure:
In the delayed type hypersensitivity (DTH) procedure, the effect of a compound on the development of an immune reaction can be observed in mice (details in example 16). Briefly, the compound is administered daily and the animals are immunized subsequently with an antigen in adjuvant. After 7 days the animals are challenged locally by injecting the antigen locally (mostly in the foot) and measuring the subsequently developing local swelling in response to the deposition of the antigen. The degree of this swelling is related to the development of an immune response against the eliciting antigen. The inhibiting action of a compound of this invention on the development of this swelling can be determined, by comparing the treatment group with a placebo treated group. As a reference treatment, administration of glucocorticoids can be used.
Groups of eight female Balb/c (Harlan, Zeist, The Netherlands) mice were used, approximately 8 weeks of age at the start of the experiment. These mice were housed in Macrolon cages, under standard conditions and acclimatized for 3-5 days before the start of the experiment. The groups received either compound or placebo.
They were weighed on day 1 and on the last treatment day. Animals were treated once daily by subcutaneous (sc) injection in the back of the neck or by oral gavage from day 1 till day 11 with a test compound in concentration range from 1.2, 3, 4, 6, to 12 mg/kg. The injection volume was 0.1 mL of a vehicle for injection consisting of physiological saline containing 0.5% gelatin and 5% mannitol. A placebo treated group (vehicle only) and a group treated with 4 mg/kg dexamethasone as reference compound were included in each experiment.
On day 2, animals were immunized with 0.1 ml of a stable suspension of 3.75 Lf Tetanus Toxoid antigen (TT from the RIVM, Zeist, The Netherlands) in 1 mg/ml dimethyl dioctadecylammonium bromide (DDA) from Phase Sep, at 2 places on the breast intradermally.
On day 9 animals were challenged on the ventral side of the right [R] paw with 0.05 mL of a solution containing 50 Lf TT and 1 mg Al(OH)3 per mL. The left [L] footpad (control) received the vehiculum with Al(OH)3 only. After 24 and 48 hours, the left and right footpad thickness (parameters L and R, respectively) were measured with a calipers densitometer in mm and the percentage of antigen-specific footpad swelling was calculated according to the formula: [(R−L)/L]×100%. Results

The results in this text go back to patent publication US6579864B1, “3-methylene steroid derivatives” (Akzo Nobel NV, priority 1999, dated 2003).

SMILES strings stand for the structures.

On to `C#CC1(O)CCC2C3C(C)CC4=C(CCC(=C)C4)C3CCC21C` (stereo not drawn) [example 1, (7α,17α)-7-methyl-3-methylene-19-norpregn-5(10)-en-20-yn-17-ol], for which, in data set [1], the “Amount of compound given sc. in mg/kg leading to 50% reduction of the DTH reaction as compared to placebo” value was 1.9 to 3.4 mg/kg.

By melting point is commonly meant the temperature of the solid-liquid transition. As to `C=C1CCC2=C(C1)C[C@@H](C)[C@@H]1[C@@H]2CC[C@]2(C)[C@@H](O)CC[C@@H]12` [example 2, (7α,17β)-7-methyl-3-methyleneestr-5(10)-en-17-ol], the melting point was found to be 111.8 °C. In addition, the “Amount of compound given sc. in mg/kg leading to 50% reduction of the DTH reaction as compared to placebo” value in data set [1] is on record as 20 mg/kg.

In the case of `C#CC1(O)CCC2C3C(C)CC45CC(=C)CCC4(O5)C3CCC21C` (stereo not drawn) [example 3, (5β,7α,17α)-5,10-epoxy-7-methyl-3-methylene-19-norpregn-20-yn-17-ol], in data set [1], the “Amount of compound given sc. in mg/kg leading to 50% reduction of the DTH reaction as compared to placebo” value is 11 mg/kg.

`C=C1CC[C@@]23O[C@]2(C1)C[C@@H](C)[C@H]1[C@@H]2CC[C@H](O)[C@@]2(C)CC[C@@H]13` [example 4, (5β,7α,17β)-5,10-epoxy-7-methyl-3-methyleneestran-17-ol]: the melting point stood at 125 °C. In data set [1], the “Amount of compound given sc. in mg/kg leading to 50% reduction of the DTH reaction as compared to placebo” value is over 20 mg/kg.

In the case of `C=C[C@]1(O)CC[C@H]2[C@H]3[C@H](CC[C@@]21C)[C@H]1CCC(=C)C[C@@H]1C[C@H]3C` [example 5, (5α,7α,17α)-7-methyl-3-methylene-19-norpregn-20-en-17-ol], in data set [1], the “Amount of compound given sc. in mg/kg leading to 50% reduction of the DTH reaction as compared to placebo” value stood at 10 mg/kg.

For the molecule `C=C1CC[C@H]2[C@@H](C1)C[C@@H](C)[C@@H]1[C@@H]2CC[C@@]2(C)[C@H]1CC[C@@]2(O)CC` [example 7, (5β,7α,17α)-7-Methyl-3-methylene-19-norpregnan-17-ol], the “Amount of compound given sc. in mg/kg leading to 50% reduction of the DTH reaction as compared to placebo” value in data set [1] is 6 mg/kg.
